In ChEMBL document CHEMBL1201862, “PubChem BioAssay data set” (2004):
Activity calls are given as the source filed them.

Assays:
Large T antigen = Large T antigen (Simian virus 40, UniProt P03070); assay type: functional, Betapolyomavirus macacae;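 note: Confirmatory-stage PubChem screen for compounds that inhibit SV40 T antigen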
[1] = target: Induced myeloid leukemia cell differentiation protein Mcl-1 (Homo sapiens, UniProt Q07820); assay type: functional
[2] = target: Glyceraldehyde-3-phosphate dehydrogenase (Homo sapiens, UniProt P04406)
Sequence of Glyceraldehyde-3-phosphate dehydrogenase (P04406 whole entry): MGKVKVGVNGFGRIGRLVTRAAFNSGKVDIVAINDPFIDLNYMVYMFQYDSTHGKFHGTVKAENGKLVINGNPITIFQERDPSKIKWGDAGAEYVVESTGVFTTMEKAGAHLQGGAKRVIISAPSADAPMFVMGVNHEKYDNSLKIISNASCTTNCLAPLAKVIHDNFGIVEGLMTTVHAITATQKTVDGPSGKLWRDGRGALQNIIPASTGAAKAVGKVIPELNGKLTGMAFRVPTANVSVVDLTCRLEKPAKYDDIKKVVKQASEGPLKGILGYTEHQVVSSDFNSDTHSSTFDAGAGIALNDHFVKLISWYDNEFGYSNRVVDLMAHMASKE

[3] = growth suppression of beta-catenin-knockout colon cells, dose response, cell-based, HCT116, human colon tumor (AID 1045); assay type: functional;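 note: HCT116 colon tumor cells with beta catenin knocked out; cells exposed to compound for 60 hours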
Protein RecA = target: T1, Protein RecA (Mycobacterium tuberculosis, UniProt P9WHJ3); test: Fluorescence Cell-Free Homogeneous Dose Retest to Identify Inhibitors of RecA-Intein Splicing Activity. [Related pubchem assays (depositor defined):AID2097, AID2223, AID489010, AID492950]; assay type: functional
T1 sequence (P9WHJ3 whole entry): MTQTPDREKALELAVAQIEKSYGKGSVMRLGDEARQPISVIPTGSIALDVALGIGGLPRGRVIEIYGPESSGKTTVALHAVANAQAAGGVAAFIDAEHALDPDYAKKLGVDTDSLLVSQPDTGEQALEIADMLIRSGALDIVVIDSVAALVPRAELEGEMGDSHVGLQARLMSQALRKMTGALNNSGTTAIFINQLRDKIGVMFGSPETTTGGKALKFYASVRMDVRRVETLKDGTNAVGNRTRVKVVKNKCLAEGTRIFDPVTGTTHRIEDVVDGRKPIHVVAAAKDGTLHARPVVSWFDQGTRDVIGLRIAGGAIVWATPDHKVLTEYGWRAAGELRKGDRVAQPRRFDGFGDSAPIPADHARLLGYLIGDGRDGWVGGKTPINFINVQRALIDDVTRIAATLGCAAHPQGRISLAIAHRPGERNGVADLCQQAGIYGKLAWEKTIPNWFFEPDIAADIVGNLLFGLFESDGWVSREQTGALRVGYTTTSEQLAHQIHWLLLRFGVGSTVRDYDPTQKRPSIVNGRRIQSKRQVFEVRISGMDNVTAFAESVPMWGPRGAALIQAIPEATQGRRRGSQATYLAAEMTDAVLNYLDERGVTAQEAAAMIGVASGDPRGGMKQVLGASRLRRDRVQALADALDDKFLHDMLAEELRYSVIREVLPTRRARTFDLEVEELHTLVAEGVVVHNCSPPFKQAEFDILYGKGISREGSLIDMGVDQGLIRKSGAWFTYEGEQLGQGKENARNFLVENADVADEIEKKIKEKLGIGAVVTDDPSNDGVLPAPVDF

Leucine aminopeptidase = target: T2, Leucine aminopeptidase (Plasmodium falciparum 3D7, UniProt Q8IL11); test: P. falciparum M17LAP inhibitors, primary screen, biochemical, fluorogenic H-Leu-NHMec substrate, 1536-well (AID 1619); assay type: functional
T2 sequence (Q8IL11 whole entry): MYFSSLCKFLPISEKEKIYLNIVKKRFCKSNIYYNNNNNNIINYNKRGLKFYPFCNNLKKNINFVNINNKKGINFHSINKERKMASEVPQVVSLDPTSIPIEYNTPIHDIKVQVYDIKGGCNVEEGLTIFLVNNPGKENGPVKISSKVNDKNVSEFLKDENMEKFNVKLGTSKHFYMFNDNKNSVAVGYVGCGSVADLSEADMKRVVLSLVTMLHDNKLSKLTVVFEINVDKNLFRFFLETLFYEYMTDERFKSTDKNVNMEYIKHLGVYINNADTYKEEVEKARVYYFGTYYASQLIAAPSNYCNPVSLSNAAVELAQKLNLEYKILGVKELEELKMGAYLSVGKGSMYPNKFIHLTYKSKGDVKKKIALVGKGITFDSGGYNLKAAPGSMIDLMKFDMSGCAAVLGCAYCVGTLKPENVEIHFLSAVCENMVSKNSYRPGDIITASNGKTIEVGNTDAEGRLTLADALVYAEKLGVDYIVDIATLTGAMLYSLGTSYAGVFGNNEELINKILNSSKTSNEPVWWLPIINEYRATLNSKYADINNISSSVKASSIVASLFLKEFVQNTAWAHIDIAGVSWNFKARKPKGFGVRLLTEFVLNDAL

[4] = target: T3, Replicative DNA helicase DnaB (Mycobacterium tuberculosis, UniProt P9WMR3); test: DnaB intein splicing inhibitors, dose response, biochemical, cell-free fluorescence (AID 449749); assay type: functional
T3 sequence (P9WMR3 whole entry): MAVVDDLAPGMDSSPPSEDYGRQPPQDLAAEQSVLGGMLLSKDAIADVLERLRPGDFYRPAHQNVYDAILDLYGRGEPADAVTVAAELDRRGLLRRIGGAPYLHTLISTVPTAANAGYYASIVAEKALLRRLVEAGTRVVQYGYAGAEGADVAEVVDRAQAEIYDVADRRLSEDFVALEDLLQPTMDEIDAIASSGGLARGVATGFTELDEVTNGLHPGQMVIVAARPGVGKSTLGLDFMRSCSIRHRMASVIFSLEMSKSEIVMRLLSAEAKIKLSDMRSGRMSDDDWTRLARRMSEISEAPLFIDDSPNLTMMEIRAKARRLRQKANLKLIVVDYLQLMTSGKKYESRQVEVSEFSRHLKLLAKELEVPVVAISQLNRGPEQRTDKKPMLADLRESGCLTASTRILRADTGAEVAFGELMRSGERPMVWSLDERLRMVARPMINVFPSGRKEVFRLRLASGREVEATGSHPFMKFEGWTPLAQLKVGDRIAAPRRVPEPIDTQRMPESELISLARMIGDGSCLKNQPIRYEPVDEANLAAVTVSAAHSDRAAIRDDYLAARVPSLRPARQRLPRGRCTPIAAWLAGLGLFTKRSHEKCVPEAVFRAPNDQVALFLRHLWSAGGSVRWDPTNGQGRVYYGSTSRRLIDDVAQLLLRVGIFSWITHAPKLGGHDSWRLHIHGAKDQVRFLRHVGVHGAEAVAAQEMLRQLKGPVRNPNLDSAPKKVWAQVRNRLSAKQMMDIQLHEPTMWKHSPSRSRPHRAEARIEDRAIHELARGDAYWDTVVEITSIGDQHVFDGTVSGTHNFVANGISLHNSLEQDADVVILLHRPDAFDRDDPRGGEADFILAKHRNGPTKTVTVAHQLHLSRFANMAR

[5] = target: T4, Polyadenylate-binding protein 1 (Homo sapiens, UniProt P11940); test: PABP1 MLLE–PAM2 binding inhibitor potency, dose response, biochemical, fluorescence polarization, FITC-PAM2 peptide (AID 602259); assay type: functional; conditions: read-out: IC50_Mean
T4 sequence (P11940 whole entry): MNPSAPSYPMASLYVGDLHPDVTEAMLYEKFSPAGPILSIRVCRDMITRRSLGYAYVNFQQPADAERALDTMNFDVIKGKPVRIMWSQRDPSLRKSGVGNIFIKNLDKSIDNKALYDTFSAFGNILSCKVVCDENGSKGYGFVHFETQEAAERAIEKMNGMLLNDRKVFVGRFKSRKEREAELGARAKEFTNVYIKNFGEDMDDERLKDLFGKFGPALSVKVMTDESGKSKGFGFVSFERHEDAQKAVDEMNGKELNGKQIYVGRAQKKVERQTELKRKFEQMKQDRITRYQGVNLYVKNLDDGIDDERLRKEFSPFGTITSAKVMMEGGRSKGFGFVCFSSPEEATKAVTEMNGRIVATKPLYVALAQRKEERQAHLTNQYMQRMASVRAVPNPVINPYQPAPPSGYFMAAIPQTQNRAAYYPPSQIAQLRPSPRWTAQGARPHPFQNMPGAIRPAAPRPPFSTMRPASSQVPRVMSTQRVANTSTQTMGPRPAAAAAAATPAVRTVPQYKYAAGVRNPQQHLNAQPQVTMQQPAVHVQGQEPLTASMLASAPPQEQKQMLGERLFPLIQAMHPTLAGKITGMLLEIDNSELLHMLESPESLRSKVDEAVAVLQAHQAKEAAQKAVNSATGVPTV

[6] = target: T4, Polyadenylate-binding protein 1; test: PABP1 MLLE–PAM2 interaction inhibitors, dose response, miRNA deadenylation inhibitor project, biochemical, fluorescence polarization, Cy5-PAM2 peptide, secondary (AID 602260); assay type: functional; conditions: read-out: IC50_Mean

Sequence of Large T antigen (P03070 whole entry): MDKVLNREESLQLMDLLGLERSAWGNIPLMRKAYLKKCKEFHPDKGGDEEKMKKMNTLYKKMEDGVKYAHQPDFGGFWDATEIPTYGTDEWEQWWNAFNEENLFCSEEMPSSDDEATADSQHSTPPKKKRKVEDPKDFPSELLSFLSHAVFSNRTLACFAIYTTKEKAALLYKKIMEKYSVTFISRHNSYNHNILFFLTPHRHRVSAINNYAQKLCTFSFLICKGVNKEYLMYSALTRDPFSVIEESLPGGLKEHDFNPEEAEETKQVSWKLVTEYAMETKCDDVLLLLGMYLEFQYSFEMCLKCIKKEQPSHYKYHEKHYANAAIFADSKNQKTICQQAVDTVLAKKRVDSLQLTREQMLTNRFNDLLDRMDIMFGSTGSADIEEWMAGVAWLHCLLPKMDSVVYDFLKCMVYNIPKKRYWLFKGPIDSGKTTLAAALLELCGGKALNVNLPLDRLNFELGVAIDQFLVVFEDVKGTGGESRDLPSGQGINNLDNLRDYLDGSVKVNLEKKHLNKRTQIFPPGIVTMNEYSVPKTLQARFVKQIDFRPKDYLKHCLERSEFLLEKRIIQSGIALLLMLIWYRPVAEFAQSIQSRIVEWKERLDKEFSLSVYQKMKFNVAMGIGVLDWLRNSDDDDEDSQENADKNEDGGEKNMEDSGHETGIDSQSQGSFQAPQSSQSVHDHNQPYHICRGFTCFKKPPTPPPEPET
Sequence of Induced myeloid leukemia cell differentiation protein Mcl-1 (Q07820 whole entry): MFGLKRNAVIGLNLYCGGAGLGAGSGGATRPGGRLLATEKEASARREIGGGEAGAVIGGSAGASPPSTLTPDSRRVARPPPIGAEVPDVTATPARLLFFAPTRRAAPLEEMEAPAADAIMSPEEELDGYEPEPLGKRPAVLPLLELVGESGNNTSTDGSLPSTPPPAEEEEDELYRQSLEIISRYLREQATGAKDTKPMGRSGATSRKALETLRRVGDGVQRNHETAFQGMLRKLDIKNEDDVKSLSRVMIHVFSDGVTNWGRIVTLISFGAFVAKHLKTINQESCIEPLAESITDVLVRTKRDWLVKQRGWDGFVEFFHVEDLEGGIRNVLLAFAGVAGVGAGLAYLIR

In the case of `N#CC1=C2SCN(Cc3ccco3)CN2C(=O)CC1c1ccc(Cl)cc1` (stereo not drawn), the IC50 (Large T antigen) is reported as > 100 µM (active).
With `Cc1nc(N)sc1-c1csc(Nc2ncccn2)n1` the IC50 [1] was 3.69 µM (active).
For `O=C(O)/C=C/C(=O)Nc1ccc2c(c1)C(=O)c1ccccc1C2=O`, the IC50 [2] was > 100 µM (not active).
For `Cc1cc(NC(=O)CN2CCN(c3ccc(O)cc3)CC2)no1`, the IC50 (Large T antigen) was 9.24 µM (active) and the EC50 [3] was 31.9 µM (active).
For `COc1ccc(N2CCN(C3=C(Cl)C(=O)N(c4ccc(C(F)(F)F)cc4)C3=O)CC2)cc1`, the IC50 [2] was > 12.5 µM (inconclusive).
In the case of `CCCc1n[nH]c2c1C(CCc1ccccc1)C(C#N)=C(N)O2` (stereo not drawn), the EC50 (Protein RecA) is reported as 7.93 µM (active), the IC50 (Leucine aminopeptidase) is reported as 55.7 µM (active) and the AC50 [4] is reported as 6.33 µM (active).
For `COc1cccc(C(=O)Nc2ccc3c(c2)n(C)c(=O)n3C)c1`, the IC50 (Large T antigen) was > 100 µM (active).
In the case of `Cc1ccc(C(=O)C2CCN(CC(=O)Nc3ccc(N(C)C)cc3)CC2)cc1`, the IC50 (Large T antigen) is reported as 14.5 µM (active).
With `COc1ccc(N2CCN(C3=C(Cl)C(=O)N(c4ccnc(Cl)c4)C3=O)CC2)cc1` the IC50 [2] was > 50 µM (inconclusive).
With `NC(=O)N/N=C/c1c(Sc2nnnn2-c2ccccc2)nc2ccccn2c1=O` the IC50 (Large T antigen) was 60.5 µM (active).
For `CCc1c(O)nc(SCC(=O)Nc2ccccc2)n(C(C)CC)c1=O` (stereo not drawn), the IC50 [5] was > 66 µM (inactive), the IC50 (Leucine aminopeptidase) was 17.8 µM (active) and the IC50 [6] was > 66 µM (inactive).
In the case of `O=C(O)CN1C(=O)S/C(=C\c2ccc(O)cc2)C1=O`, the IC50 [2] is reported as > 100 µM (not active).
For `O=C1c2c(O)cc(O)cc2O[C@H](c2ccc(O)c(O)c2)[C@H]1O` [(+)-TAXIFOLIN], the IC50 (Large T antigen) was 32 µM (active).
